Reference: US20260273028A1, “PEROXIDASE COMPOSITIONS CONTAINING IMPROVED ENHANCING AGENTS” (FLEN HEALTH PHARMA NV, priority 2022, published 2026)

Key:
[1] = system: Staphylococcus aureus ATCC® 6538™; assay: MBC determination, broth microdilution with CFU enumeration; type: cell-based; details: S. aureus
[2] = system: Staphylococcus aureus ATCC® 6538™; assay: Absolute microbial counts in function of enzyme solution concentration; type: cell-based; details: 0.005%-0.0000391% (v/v) GOX+LPO
Source text: (§1) Absolute microbial counts in function of concentration of the antimicrobial agent tested are useful to monitor the bactericidal and fungicidal efficacy of that agent.
(§2) To determine the absolute number of live microorganisms in function of different enzyme solution concentrations tested, a classical broth microdilution assay combined with standard CFU enumeration techniques was used to determine the susceptibility of a series of microbes commonly detected in infected wounds, including (a) the Gram-positive bacterium Staphylococcus aureus ATCC® 6538™ (results shown below), (b) the Gram-negative bacterium Pseudomonas aeruginosa ATCC®9027™ (results shown below), (c) the yeast Candida albicans ATCC®10231™ (results shown below), and (d) the fungus Aspergillus niger ATCC®16404™ (results shown below). In brief, the broth microdilution assay was set up as previously described (see 2.1). After incubation, the absolute microbial count at the MIC and following higher concentrations (MICx2, MICx4, and so on) was determined using standard CFU enumeration techniques. For each combination evaluated, this test was repeated at least 5 times. The collected data were further analyzed in MS Excel and expressed as log CFU/ml. Mean results were plotted in function of enzyme solution concentration.

[3] = system: MMP9; assay: MMP9 secretion by THP-1-derived macrophages, ELISA; type: cell-based; details: 24 h
Method: First, the effect on the secretion of these mediators by macrophages was evaluated. Secondly, the direct neutralization of already secreted mediators was evaluated. Both were measured by the state-of-the-art ELISA technique. First, the secretion of the pro-inflammatory mediator representatives IL-6, TNFa and MMP9 in cell culture supernatants by THP-1 (a monocytic cell line) after its differentiation into macrophages were measured. In brief, THP-1 cells were seeded at a density of 3×10^5 cells/cm^2 in a 6-well plate in the presence of 160 nM of phorbol-12-myristate-13-acetate (PMA) to induce macrophage differentiation. Differentiation was further conducted for 48 h. […] Supernatants were collected and centrifuged at 150 g for 5 min to remove cell debris and were kept at −20° C. before being processed for ELISA. IL-6, TNFa and MMP9 ELISA kits were purchased from BioTechne and the experiment was performed according to manufacturer's instructions. Briefly, 96-well plates were coated with capture antibodies overnight at room temperature. […] The reaction was stopped by the addition of sulphuric acid and absorbance at 450 nm was read with a plate reader. Absorbance is proportional to the concentration of analyte present in the medium, which was calculated based on a standard curve realized with recombinant IL-6, TNFa and MMP9.

[4] = system: IL-6; assay: Direct neutralization of secreted IL-6 in cell culture supernatants, ELISA; type: biochemical; details: isoleucine 0.05%; 3 h
Method: (§3) First, the effect on the secretion of these mediators by macrophages was evaluated. Secondly, the direct neutralization of already secreted mediators was evaluated. Both were measured by the state-of-the-art ELISA technique. Secondly, the direct neutralization of secreted pro-inflammatory mediator representatives IL-6, TNFa and MMP9 was measured in parallel. In brief, cell culture supernatants were collected after 48 h of macrophage differentiation and were centrifuged at 150 g for 5 min to remove cell debris. […] Treated supernatants were kept frozen until being processed for ELISA. IL-6, TNFa and MMP9 ELISA kits were purchased from BioTechne and the experiment was performed according to manufacturer's instructions. Briefly, 96-well plates were coated with capture antibodies overnight at room temperature. […] After several washing steps, the corresponding detection antibody, which is coupled to biotin, was incubated for 2 h. […] The reaction was stopped by the addition of sulphuric acid and absorbance at 450 nm was read with a plate reader. Absorbance is proportional to the concentration of analyte present in the medium, which was calculated based on a standard curve realized with recombinant IL-6, TNFa and MMP9.

[5] = system: Candida albicans ATCC®10231™; assay: MBC determination, broth microdilution with CFU enumeration; type: cell-based; details: C. albicans; enhancer 0.01%
[6] = system: IL-6; assay: IL-6 secretion by THP-1-derived macrophages, ELISA; type: cell-based; details: 24 h
Method: First, the effect on the secretion of these mediators by macrophages was evaluated. Secondly, the direct neutralization of already secreted mediators was evaluated. Both were measured by the state-of-the-art ELISA technique. First, the secretion of the pro-inflammatory mediator representatives IL-6, TNFa and MMP9 in cell culture supernatants by THP-1 (a monocytic cell line) after its differentiation into macrophages were measured. In brief, THP-1 cells were seeded at a density of 3×10^5 cells/cm^2 in a 6-well plate in the presence of 160 nM of phorbol-12-myristate-13-acetate (PMA) to induce macrophage differentiation. Differentiation was further conducted for 48 h. […] Supernatants were collected and centrifuged at 150 g for 5 min to remove cell debris and were kept at −20° C. before being processed for ELISA. IL-6, TNFa and MMP9 ELISA kits were purchased from BioTechne and the experiment was performed according to manufacturer's instructions. Briefly, 96-well plates were coated with capture antibodies overnight at room temperature. […] After several washing steps, the corresponding detection antibody, which is coupled to biotin, was incubated for 2 h. […] The reaction was stopped by the addition of sulphuric acid and absorbance at 450 nm was read with a plate reader. Absorbance is proportional to the concentration of analyte present in the medium, which was calculated based on a standard curve realized with recombinant IL-6, TNFa and MMP9.

[7] = system: Candida albicans ATCC®10231™; assay: Absolute microbial counts in function of enzyme solution concentration; type: cell-based; details: enhancer 0.01%; 0.005%-0.0000391% (v/v) GOX+LPO
Source text: as §1, §2

[8] = system: MMP9; assay: Direct neutralization of secreted MMP9 in cell culture supernatants, ELISA; type: biochemical; details: isoleucine 0.05%; 3 h
Method: as §3

Q: Which results are given for `NC(=O)CC[C@H](N)C(=O)O` [Glutamine, glutamine]?
A: MBC: GOX+LPO enzyme solution needed ([1]; enhancer 0.1%): 0.0000391 % (v/v); increase in MBC compared to reference ([1]; enhancer 0.1%): 4 ×; increase in MBC compared to the enhancing molecule guaiacol ([1]; enhancer 0.1%): 2 ×; reduction in absolute S. aureus counts compared to reference and guaiacol solution ([2]; enhancer 0.1%): stronger reduction

Q: For `CC[C@H](C)[C@H](N)C(=O)O` [Isoleucine, isoleucine], which “additional decrease in MMP9 secretion by macrophages vs GOX+LPO (1:1) alone” value ([3]; isoleucine 0.0025%) is on record?
A: 12.7%

Q: And the “additional decrease in MMP9 secretion by macrophages vs GOX+LPO (1:1) alone” value ([3]; isoleucine 0.05%)?
A: 21.5%

Q: What about the “additional decrease of already secreted IL-6 (direct neutralization) vs GOX+LPO (1:1) alone” value [4] of the same molecule?
A: 29.4%

Q: And the “MBC: GOX+LPO enzyme solution needed” value ([1]; enhancer 0.00125%)?
A: 0.0000391 % (v/v)

Q: And the “increase in MBC compared to reference” value ([1]; enhancer 0.00125%)?
A: 4 ×

Q: What about the “increase in MBC compared to the enhancing molecule guaiacol” value ([1]; enhancer 0.00125%) of the same molecule?
A: 2 ×

Q: And the “MBC: GOX+LPO enzyme solution needed” value ([1]; enhancer 0.005%)?
A: 0.0000391 % (v/v)

Q: And the “increase in MBC compared to reference” value ([1]; enhancer 0.005%)?
A: 4 ×

Q: And the “increase in MBC compared to the enhancing molecule guaiacol” value ([1]; enhancer 0.005%)?
A: 2 ×

Q: And the “MBC: GOX+LPO enzyme solution needed” value [5]?
A: 0.0000391 % (v/v)

Q: What about the “increase in MBC compared to reference” value [5] of the same molecule?
A: 4 ×

Q: And the “increase in MBC compared to the enhancing molecule guaiacol” value [5]?
A: 2 ×

Q: And the “additional decrease in IL-6 secretion by macrophages vs GOX+LPO (1:1) alone” value (from here on “additional decrease in IL-6 secretion”) ([6]; isoleucine 0.0025%)?
A: 7.6%

Q: What about the “additional decrease in IL-6 secretion” value ([6]; isoleucine 0.05%) of the same molecule?
A: 20.6%

Q: And the “additional decrease in IL-6 secretion” value ([6]; isoleucine 0.5%)?
A: 33.6%

Q: And the “reduction in absolute S. aureus counts compared to reference and guaiacol solution” value (“reduction in absolute S. aureus counts” for short) ([2]; enhancer 0.00125%)?
A: stronger reduction

Q: What about the “reduction in absolute S. aureus counts” value ([2]; enhancer 0.005%) of the same molecule?
A: stronger reduction

Q: What about the “reduction in absolute C. albicans counts compared to reference and guaiacol solution” value [7] of the same molecule?
A: stronger reduction

Q: And the “additional decrease of already secreted MMP9 (direct neutralization) vs GOX+LPO (1:1) alone” value [8]?
A: 27.1%

Q: `N[C@@H](CO)C(=O)O` [Serine, serine] was tested. Which “MBC: GOX+LPO enzyme solution needed” value ([1]; enhancer 0.0025%-0.00125%) did it give?
A: 0.0000391 % (v/v)

Q: And the “increase in MBC compared to reference” value ([1]; enhancer 0.0025%-0.00125%)?
A: 4 ×

Q: And the “increase in MBC compared to the enhancing molecule guaiacol” value ([1]; enhancer 0.0025%-0.00125%)?
A: 2 ×

Q: And the “MBC: GOX+LPO enzyme solution needed” value ([1]; enhancer 10%-0.005%)?
A: 0.0000391 % (v/v)

Q: And the “increase in MBC compared to reference” value ([1]; enhancer 10%-0.005%)?
A: 4 ×

Q: What about the “increase in MBC compared to the enhancing molecule guaiacol” value ([1]; enhancer 10%-0.005%) of the same molecule?
A: 2 ×

Q: And the “MBC: GOX+LPO enzyme solution needed” value [5]?
A: 0.0000391 % (v/v)

Q: What about the “increase in MBC compared to reference” value [5] of the same molecule?
A: 4 ×

Q: What about the “increase in MBC compared to the enhancing molecule guaiacol” value [5] of the same molecule?
A: 2 ×

Q: What about the “reduction in absolute S. aureus counts” value ([2]; enhancer 0.0025-0.00125%) of the same molecule?
A: stronger reduction

Q: What about the “reduction in absolute S. aureus counts” value ([2]; enhancer 10-0.005%) of the same molecule?
A: stronger reduction

Q: What about the “reduction in absolute C. albicans counts compared to reference and guaiacol solution” value [7] of the same molecule?
A: stronger reduction
